Data on 47 molecules can be found in the Biogen ADME set (Fang et al. 2023).

The conditions of the data set: for aqueous solubility: pH 6.8.

≈ marks a conversion by molar mass, not a printed value.

As usually defined, the aqueous solubility is how much of the substance goes into solution per volume. In the case of `COc1cc(N2CCN(C)CC2)ccc1Nc1ncc2c(n1)N(C)c1ccccc1C(=O)N2`, the MDR1-MDCK efflux ratio was determined as 45; the intrinsic clearance, human liver microsomes worked out at 14.2 mL/min/kg; the intrinsic clearance, rat liver microsomes came to 131 mL/min/kg; the aqueous solubility was found to be 61.7 µg/mL (≈ 138 µM).
On to `Cc1ccccc1CCNC(=O)N(Cc1cccnc1)C1CCN(C)CC1`, for which the MDR1-MDCK efflux ratio was found to be 55.7; the intrinsic clearance, human liver microsomes was 20.4 mL/min/kg; the intrinsic clearance, rat liver microsomes was 815 mL/min/kg.
Turning to `Cc1ccc(NC(=O)C(C)(C)c2ccccc2)nc1`, the MDR1-MDCK efflux ratio is 0.556; the intrinsic clearance, human liver microsomes was 16.8 mL/min/kg; the intrinsic clearance, rat liver microsomes was found to be 626 mL/min/kg; the aqueous solubility worked out at 30.6 µg/mL (≈ 120 µM).
`CN1C(=O)[C@H]2CN(CC3=CC[C@H]4C[C@@H]3C4(C)C)C[C@H]2C1=O`: the MDR1-MDCK efflux ratio is 0.768; the intrinsic clearance, human liver microsomes worked out at 207 mL/min/kg; the intrinsic clearance, rat liver microsomes came out at 2390 mL/min/kg.
As for `COCCN(Cc1cccs1)Cc1cccc(C)c1O`, the intrinsic clearance, human liver microsomes was determined as 124 mL/min/kg; the intrinsic clearance, rat liver microsomes is 2100 mL/min/kg; the aqueous solubility is 1.05 µg/mL (≈ 3.6 µM).
Consider `CCC1(CC)NC(=O)N(CC(=O)N2CCOCC3(CCCC3)C2)C1=O`, for which the MDR1-MDCK efflux ratio was 81.5; the intrinsic clearance, human liver microsomes was determined as 30.6 mL/min/kg; the intrinsic clearance, rat liver microsomes came to 217 mL/min/kg; the aqueous solubility was 63.4 µg/mL (≈ 180 µM).
`CN1C(=O)[C@H](Cc2ccccc2)N[C@@H]1C(C)(C)C`: the MDR1-MDCK efflux ratio is 0.771; the intrinsic clearance, human liver microsomes turned out to be 53.9 mL/min/kg; the intrinsic clearance, rat liver microsomes was determined as 747 mL/min/kg; the aqueous solubility turned out to be 30.3 µg/mL (≈ 123 µM).
In the same order, the values of `O=C(c1ccccc1-c1ncc(-c2ccccc2F)o1)N1CCC1` are 0.659, 35.1 mL/min/kg, 456 mL/min/kg and 43.6 µg/mL (≈ 135 µM).
`CC(C)c1noc(CN(C)C2CCCC2)n1` gave an intrinsic clearance, human liver microsomes of 15.9 mL/min/kg; an intrinsic clearance, rat liver microsomes of 657 mL/min/kg; an aqueous solubility of 17.3 µg/mL (≈ 77.3 µM).
As for `Cc1ccc(S(=O)(=O)Nc2ccc3c(c2)c(C(=O)C(F)(F)F)cn3CC(=O)N[C@@H](CC(C)C)C(=O)O)cc1`, the MDR1-MDCK efflux ratio came out at 20 and the aqueous solubility came out at 80.4 µg/mL (≈ 145 µM).
As to `CN(CCOc1ccccc1)CC(=O)NCCc1ccccc1`, the MDR1-MDCK efflux ratio turned out to be 0.728; the intrinsic clearance, human liver microsomes came out at 267 mL/min/kg; the intrinsic clearance, rat liver microsomes came out at 5420 mL/min/kg.
In the case of `O=C(c1ccc(Cn2nnc(-c3cccc(F)c3)n2)cc1)N1CCCC1`, the MDR1-MDCK efflux ratio came out at 0.793; the intrinsic clearance, human liver microsomes stood at 12.1 mL/min/kg; the intrinsic clearance, rat liver microsomes worked out at 125 mL/min/kg; the aqueous solubility turned out to be 10.8 µg/mL (≈ 30.7 µM).
In the same order, the values of `Cc1ccc(C(=O)NC[C@H]2Cn3ccnc3CO2)cc1` are 7.94, ≤ 4.74 mL/min/kg, ≤ 10.7 mL/min/kg and 30.4 µg/mL (≈ 112 µM).
For the molecule `CCCCOc1ccc(-c2cc3c(=O)[nH]ccn3n2)cc1`, the MDR1-MDCK efflux ratio is 0.743 and the aqueous solubility is 0.2 µg/mL (≈ 0.706 µM).
`Cc1csc(CCNc2ncccc2C#N)n1`: the intrinsic clearance, human liver microsomes turned out to be 73 mL/min/kg; the intrinsic clearance, rat liver microsomes worked out at 876 mL/min/kg; the aqueous solubility is 32.1 µg/mL (≈ 131 µM).
Consider `O=C(Nc1ccccc1-n1ccnc1)c1ccc(F)cc1`, for which the MDR1-MDCK efflux ratio amounted to 0.961; the intrinsic clearance, human liver microsomes came out at 10.2 mL/min/kg; the intrinsic clearance, rat liver microsomes worked out at 40.3 mL/min/kg; the aqueous solubility came to 60.8 µg/mL (≈ 216 µM).
In the case of `CCCS(=O)(=O)Nc1ccc(F)c(C(=O)c2c[nH]c3ncc(-c4ccc(Cl)cc4)cc23)c1F`, the MDR1-MDCK efflux ratio stood at 5.52; the fraction unbound, human plasma came out at 0.00025; the aqueous solubility was found to be 0.35 µg/mL (≈ 0.714 µM).
Regarding `Cc1cc2cc(C(=O)N(C)CCC(=O)O)oc2cc1C`, the MDR1-MDCK efflux ratio came to 1.72; the intrinsic clearance, human liver microsomes was ≤ 4.74 mL/min/kg; the intrinsic clearance, rat liver microsomes is ≤ 10.7 mL/min/kg; the aqueous solubility is 47 µg/mL (≈ 171 µM).
With `Nc1c(C(=O)NCC2CCCO2)sc(=S)n1-c1ccc(Cl)cc1` (stereo unspecified), the intrinsic clearance, human liver microsomes was found to be 35.3 mL/min/kg and the intrinsic clearance, rat liver microsomes was determined as 92.3 mL/min/kg.
On to `O=C(CSC1CCCC1)N1CCC(n2ccnn2)CC1`, for which the MDR1-MDCK efflux ratio amounted to 1.3; the intrinsic clearance, human liver microsomes came to 13.2 mL/min/kg; the intrinsic clearance, rat liver microsomes came to 138 mL/min/kg; the aqueous solubility was determined as 39.1 µg/mL (≈ 133 µM).
In the same order, the values of `Cc1nc2cc(NC(=O)CCc3c(C)nc4c(c(C)nn4C)c3C)ccc2o1` are 13.5, 24.2 mL/min/kg, 1110 mL/min/kg and 9.3 µg/mL (≈ 24.6 µM).
For the molecule `Cc1cc(C(=O)N2CCC(C(=O)c3ccnn3C)CC2)sc1C`, the MDR1-MDCK efflux ratio was 0.723; the intrinsic clearance, human liver microsomes is 36.7 mL/min/kg; the intrinsic clearance, rat liver microsomes was found to be 957 mL/min/kg.
Take `COCCS(=O)(=O)N1CCC2(Cc3ccccc3C2)C1`: the MDR1-MDCK efflux ratio is 0.583; the intrinsic clearance, human liver microsomes came out at 19.2 mL/min/kg; the intrinsic clearance, rat liver microsomes stood at 893 mL/min/kg; the aqueous solubility turned out to be 54 µg/mL (≈ 183 µM).
Regarding `COc1ccccc1-n1ncc2c(=O)[nH]c(SC(C)c3ccccc3)nc21` (stereo unspecified), the intrinsic clearance, human liver microsomes worked out at 224 mL/min/kg and the intrinsic clearance, rat liver microsomes was 1180 mL/min/kg.
With `O=c1[nH]c(=O)n([C@H]2C[C@H](O)[C@@H](CO)O2)cc1C(F)(F)F`, the intrinsic clearance, human liver microsomes worked out at 41.9 mL/min/kg and the intrinsic clearance, rat liver microsomes was ≤ 10.7 mL/min/kg.
For `COCC(=O)Nc1cccc(-n2cccc2)c1`, the MDR1-MDCK efflux ratio stood at 0.498; the intrinsic clearance, human liver microsomes amounted to 205 mL/min/kg; the intrinsic clearance, rat liver microsomes was 129 mL/min/kg; the aqueous solubility amounted to 50.9 µg/mL (≈ 221 µM).
For `Cc1ccc(Cn2nc(C)c(C(N)=O)c2Cl)cc1`, the MDR1-MDCK efflux ratio was 0.663; the intrinsic clearance, human liver microsomes came to 7.25 mL/min/kg; the intrinsic clearance, rat liver microsomes amounted to 358 mL/min/kg; the aqueous solubility was determined as 24.4 µg/mL (≈ 92.6 µM).
Consider `COC(=O)C1=NOC2(CCN(CCCCCF)CC2)C1`, for which the MDR1-MDCK efflux ratio turned out to be 0.463; the intrinsic clearance, human liver microsomes was determined as 199 mL/min/kg; the intrinsic clearance, rat liver microsomes is 713 mL/min/kg.
Consider `N#Cc1cc(Oc2ccc3c(c2)CCC3)ncn1`, for which the MDR1-MDCK efflux ratio is 0.408; the intrinsic clearance, human liver microsomes came to 66.7 mL/min/kg; the intrinsic clearance, rat liver microsomes is 283 mL/min/kg.
`Cc1ccc(F)cc1NC(=O)c1cnc2onc(C(C)C)c2c1`: the MDR1-MDCK efflux ratio worked out at 0.649; the intrinsic clearance, human liver microsomes is 29.3 mL/min/kg; the intrinsic clearance, rat liver microsomes worked out at 217 mL/min/kg; the aqueous solubility came out at 42.4 µg/mL (≈ 135 µM).
In the same order, the values of `CCn1cc(NC(=O)c2ccccc2C)cn1` are 0.593, 7.18 mL/min/kg, ≤ 10.7 mL/min/kg and 32.2 µg/mL (≈ 140 µM).
The molecule `CC(C)COc1ccc(C(C)(C)NCc2nnc(C3CCC3)o2)cc1` displayed an intrinsic clearance, human liver microsomes of 127 mL/min/kg and an intrinsic clearance, rat liver microsomes of 3070 mL/min/kg.
With `CCc1cccc(NC(=O)COC(=O)c2cnc(C)cn2)c1`, the aqueous solubility was 56.1 µg/mL (≈ 187 µM).
As for `Cc1cccc(C)c1CNC1(CCO)CCOCC1`, the MDR1-MDCK efflux ratio turned out to be 0.972; the intrinsic clearance, human liver microsomes is ≤ 4.74 mL/min/kg; the intrinsic clearance, rat liver microsomes was 74.3 mL/min/kg.
With `Clc1cc2c(NC3CCCC3)nnc(-c3ccncc3)c2cc1Cl`, the MDR1-MDCK efflux ratio amounted to 0.729 and the aqueous solubility is 0.19 µg/mL (≈ 0.529 µM).
Take `CCCn1nccc1NC(=O)c1c(C)noc1C`: the MDR1-MDCK efflux ratio is 1.59; the intrinsic clearance, human liver microsomes was ≤ 4.74 mL/min/kg; the intrinsic clearance, rat liver microsomes is ≤ 10.7 mL/min/kg; the aqueous solubility was found to be 31.5 µg/mL (≈ 127 µM).
As to `c1ccc2nc(N3CCCC4(CCNCC4)CC3)cnc2c1`, the MDR1-MDCK efflux ratio was determined as 33.3; the intrinsic clearance, human liver microsomes is ≤ 4.74 mL/min/kg; the intrinsic clearance, rat liver microsomes came to 495 mL/min/kg.
As for `CCCn1cnnc1CN(C)Cc1ccc(C(F)(F)F)nc1`, the MDR1-MDCK efflux ratio stood at 23.6; the intrinsic clearance, human liver microsomes was ≤ 4.74 mL/min/kg; the intrinsic clearance, rat liver microsomes was found to be 29.5 mL/min/kg.
With `COc1cc2c(cc1OC)CN(C(=O)C1CCCN(C(=O)Nc3ccccc3)C1)CC2` (stereo unspecified), the MDR1-MDCK efflux ratio is 27; the intrinsic clearance, human liver microsomes is ≤ 4.74 mL/min/kg; the intrinsic clearance, rat liver microsomes came out at 65.1 mL/min/kg; the aqueous solubility is 65.5 µg/mL (≈ 155 µM).
On to `c1cnc(N2CC(c3nc4ccccc4[nH]3)C2)nc1`, for which the MDR1-MDCK efflux ratio amounted to 3.96; the intrinsic clearance, human liver microsomes was 10.1 mL/min/kg; the intrinsic clearance, rat liver microsomes stood at 33.5 mL/min/kg; the aqueous solubility was 35 µg/mL (≈ 139 µM).
For the molecule `O=C(CCc1cc2ccccc2o1)N1CCN(c2cnccn2)CC1`, the MDR1-MDCK efflux ratio is 0.629; the intrinsic clearance, human liver microsomes amounted to 69.6 mL/min/kg; the intrinsic clearance, rat liver microsomes turned out to be 497 mL/min/kg; the aqueous solubility was determined as 55.5 µg/mL (≈ 165 µM).
With `c1cc(-c2nnc(NCc3cncs3)o2)ccn1`, the MDR1-MDCK efflux ratio was 1.9; the intrinsic clearance, human liver microsomes is ≤ 4.74 mL/min/kg; the intrinsic clearance, rat liver microsomes stood at 91.4 mL/min/kg.
In the same order, the values of `Cc1nc(CN2CCC(CNC(=O)COc3ccccc3Cl)CC2)c[nH]1` are 5.32, ≤ 4.74 mL/min/kg and 58.1 mL/min/kg.
For `CS(=O)(=O)N1CCc2c(cccc2NC(=O)c2ccc(F)cc2)C1`, the MDR1-MDCK efflux ratio is 6.4 and the aqueous solubility was 0.37 µg/mL (≈ 1.06 µM).
Regarding `Cc1nccc(N(C)Cc2nc(-c3cccnc3)no2)n1`, the MDR1-MDCK efflux ratio was found to be 0.87; the intrinsic clearance, human liver microsomes came to 8.62 mL/min/kg; the intrinsic clearance, rat liver microsomes amounted to 200 mL/min/kg.
Turning to `Cc1nnc(CN(C)Cc2cnn(C)c2C)s1`, the MDR1-MDCK efflux ratio was 1.44; the intrinsic clearance, human liver microsomes is ≤ 4.74 mL/min/kg; the intrinsic clearance, rat liver microsomes came out at 20 mL/min/kg.
In the same order, the values of `CC(C)c1nnc(CNc2ncc(Br)cn2)n1C` are 4.39, ≤ 4.74 mL/min/kg and ≤ 10.7 mL/min/kg.
